Test results from patent publication US9833433B1, “Compositions, methods of use, and methods of treatment” (priority 2013, dated 2017).

Columns and labels:
locomotor activity = assay: Open field test (locomotor activity); assay type: in vivo, mice; details: Δ^9-THC 10 mg/kg; 30 min open field
Protocol: (§1) The classic Morris water maze and fear conditioning tests were performed to determine spatial and fear memory as described previously (Chen et al., 2012). The ‘open field’ test was conducted to detect the locomotor activity and the bar test was used to detect catalepsy (Egashira et al., 2007).
The ‘open field’ test was conducted using an automatic-recording open-field working station (MED Associates, Georgia, Vt.). During the test, mice were individually released into the center of the box immediately after injections of Δ^9-THC, NS398, Δ^9-THC+NS398, Celebrex or Celebrex+Δ^9-THC. Celebrex and NS398 were injected 30 min prior to Δ^9-THC injection and allowed to explore the field for 30 min and their behaviors were recorded by a photobeam-scanning system and a video camera simultaneously. Data were analyzed automatically by the computer-sampling system.

COX-2 = assay: Hippocampal COX-2 expression in mice (immunoblot); assay type: in vivo
fear memory = assay: Fear conditioning test (contextual memory); assay type: in vivo, mice; details: 10 mg/kg once a day for 7 days; freezing 24 hrs after last injection
Protocol: as §1
Hippocampus-dependent contextual memory was determined using a fear-conditioning working-station (Coulbourn Instruments, Allentown, Pa.) and a one-trial protocol as describe previously (Chen et al., 2006a; 2006b). Mice were individually put into the shock chamber and allowed to freely explore the environment for 150 seconds. Immediately after this, a tone at 90 dB and 2,800 Hz (CS) was delivered for 30 seconds, and at the last 2 seconds a foot shock at 0.8 mA was delivered to the mice for 2 seconds (US). After the pairing of CS/US, mice were allowed to stay in the chamber for another 30 seconds and then returned to their home cages. Then the animals started receiving vehicle, Δ^9-THC (10 mg/kg), NS398 (10 mg/kg), Δ^9-THC+NS398 once a day for 7 days. Fear memory test was conducted 24 hours after the cessation of the last injections. For contextual conditioning, mice were individually put back into the chamber where they received the shock and the freezing response was recorded for 5 minutes with a sampling method at an interval of 5 seconds. […]

hippocampal LTD = assay: Hippocampal LTD induced by low-frequency stimulation at CA3-CA1 synapses; assay type: in vivo; details: single injection 10 mg/kg i.p.; LTD recorded 24 hrs later; WT mice P12 to P17
Source text: Field EPSP (fEPSP) recordings both at CA3-CA1 and perforant path synapses in response to stimuli at a frequency of 0.05 Hz were made using an Axoclamp-2B patch-clamp amplifier (Molecular Devices, CA) in bridge mode. Recording pipettes were pulled from borosilicate glass with a micropipette puller (Sutter Instrument), filled with artificial ACSF (2-4 MΩ). Hippocampal LTP at CA3-CA1 and perforant path synapses was induced by a theta-burst stimulation (TBS), consisting of a series of 10 bursts of 5 stimuli at 100 Hz (200 ms interburst interval, which was repeated three time (Fan et al., 2010; Hoffman et al., 2007; Chen et al., 2012). The input-output function was tested before recording of LTP, and the baseline stimulation strength was set to provide fEPSP with an amplitude of ˜30% from the subthreshold maximum derived from the input-output function. Hippocampal LTD was induced by low-frequency stimulation (900 stimuli at 1 Hz for 15 min) at CA3-CA1 synapses.

[1] = test system: NF-κB p65 binding to ptgs2 promoter; assay type: cell-based; details: mixed culture; Δ^9-THC 30 μM
CREB = assay: Phosphorylation of hippocampal CREB; details: WT mice; Δ^9-THC for 7 days
PGE2 = PGE2 assay in hippocampal tissue (enzyme immunoassay); assay type: in vivo, mice; details: 10 mg/kg; detected 4 hrs after injection
Source text: PGE2 in hippocampal tissue was detected using PGE2 enzyme immunoassay kit (Cayman Chemical, Ann Arbor, Mich.) according to the procedure described by the manufacturer (Zhang and Chen, 2008).

[2] = test system: Akt, ERK, p38MAPK and NF-κB; assay: Phosphorylation of Akt, ERK, p38MAPK and NF-κB in hippocampal tissue; assay type: in vivo, mice; details: Δ^9-THC 10 mg/kg
synaptophysin (Syn) = assay: Hippocampal synaptophysin expression (immunoblot); assay type: in vivo, mice; details: Δ^9-THC for 7 days
neprilysin (NEP) = assay: Neprilysin expression in 5XFAD APP transgenic mice (immunoblot); assay type: in vivo; details: TG mice
Protocol: Western blot assay was conducted using specific antibodies (Table S1) to determine expressions of COX-2, glutamate receptor subunits, PSD-95, G-protein subunits, phosphoproteins, BACE1 and neprilysin in hippocampal tissue and/or in cultured cells as described previously (Chen et al., 2012). Surface biotinylation assays were performed to determine surface expression of glutamate receptor subunits in hippocampal slices as described previously (Fan et al., 2010).

[3] = test system: hippocampal LTP at CA3-CA1 and perforant path synapses; assay: Hippocampal LTP (fEPSP recordings in slices, theta-burst stimulation); assay type: in vivo, mice; details: 10 mg/kg once daily for 7 days; LTP 24 hr after last injection; CA3-CA1 and perforant path
Protocol: Hippocampal LTP both at CA3-CA1 and perforant path synapses were recorded in acutely hippocampal slices and induced by a theta-burst stimulation (TBS) as described previously (Hoffman et al., 2007).
Hippocampal slices were prepared from mice as described previously (Chen et al., 2002; Chen et al., 2012; Fan et al., 2010). Briefly, after decapitation, brains were rapidly removed and placed in cold oxygenated (95% O2, 5% CO2) artificial cerebrospinal fluid (ACSF) containing: 125.0 NaCl, 2.5 KCl, 1.0 MgCl2, 25.0 NaHCO3, 1.25 NaH2PO4, 2.0 CaCl2, 25.0 glucose, 3 pyruvic acid, and 1 ascorbic acid. Slices were cut at a thickness of 350-400 μm and transferred to a holding chamber in an incubator containing ACSF at 36° C. for 0.5 to 1 hour, and maintained in an incubator containing oxygenated ACSF at room temperature (˜22-24° C.) for >1.5 h before recordings. Slices were then transferred to a recording chamber where they were continuously perfused with 95% O2, 5% CO2-saturated standard ACSF at ˜32-34° C. Individual pyramidal and dentate granule neurons were viewed with an upright microscope (Olympus BX51WI) fitted with a 60× water-immersion objective and differential interference contrast (DIC) optics.
Field EPSP (fEPSP) recordings both at CA3-CA1 and perforant path synapses in response to stimuli at a frequency of 0.05 Hz were made using an Axoclamp-2B patch-clamp amplifier (Molecular Devices, CA) in bridge mode. Recording pipettes were pulled from borosilicate glass with a micropipette puller (Sutter Instrument), filled with artificial ACSF (2-4 MΩ). […]

SMILES: CCCCCc1cc(O)c2c(c1)OC(C)(C)[C@@H]1CCC(C)=C[C@@H]21 [Δ^9-THC, Δ^9-tetrahydrocannabinol]
- locomotor depressive effect (locomotor activity): cataleptic and locomotor depressive effects
- hippocampal COX-2 expression after cannabinoid injection (COX-2; single i.p. injection, CP55,940 10 mg/kg, detected 4 hrs): dose- and time-dependent induction of COX-2 in the brain
- hippocampal COX-2 expression after repeated injections (COX-2; Δ^9-THC 10 mg/kg i.p. once daily for 7 consecutive days, analyzed 24 hrs after last injection): steadily elevated
- fear memory after repeated Δ^9-THC (fear memory): impaired fear memory
- hippocampal LTD after single exposure (hippocampal LTD): impaired
- binding of NF-κB p65 to ptgs2 promoter positions −419 to −428 bp [1]: enhanced
- phosphorylation of hippocampal CREB (CREB): reduced expression of glutamate receptor subunits and phosphorylation of CREB
- hippocampal PGE2 production after cannabinoid injection (PGE2): elevated production of prostaglandin E2 (PGE2)
- phosphorylation of Akt, ERK, p38MAPK and NF-κB in the hippocampus [2]: confirmed
- synaptophysin expression (synaptophysin (Syn)): did not alter expression of synaptophysin (Syn)
- expression of neprilysin (NEP) (neprilysin (NEP)): increases expression of neprilysin (NEP)
- hippocampal LTP after repeated Δ^9-THC exposure [3]: decreased hippocampal LTP
